Assay results: patent US7112605B2, “Sulfonyl-containing 3,4-diaryl-3-pyrrolin-2-ones, preparation method, and medical use thereof” (Research Institute of Materia Medica Chinese Acadamy of …, priority 2002, dated 2006)
Like-named read-outs stand apart in the source and are kept apart here.

Legend:
[1] = system: rat carrageenan-induced foot pad edema; test: Rat carrageenan-induced foot pad edema assay; type: in vivo, rats; conditions: 10 mg/kg oral
Description: Male Sprgue-Dawley rats (190–220 g) were fasted with free access to water at least 16 h prior to experiments. The rats were dosed orally with a 1 ml suspension of test compound in vehicle (0.5% methyl cellulose and 0.025% Tween-20) or with vehicle alone. One hour later a subplantar injection of 0.1 ml of 1% solution of caarageenan in 0.9% strile saline was administered to the right hind foot pad. Paw volume was measured with a displacement plethysmometer 2, 3, and 4 h after caarageenan injection.

Cyclooxygenase-2 = target: T1, Cyclooxygenase-2 (Mus musculus, UniProt Q05769); test: COX-2 assay: LPS-stimulated PGE2 production in mouse peritoneal macrophages (RIA); type: cell-based, mice; conditions: for IC50: mouse peritoneal macrophages, LPS 1 mg/L 9 h, PGE2 by RIA; for COX-1/COX-2: ratio of IC50 COX-1 to IC50 COX-2
T1 construct: endogenous in cells; host or cells: thioglycollate-elicited peritoneal macrophages of male C57BL-6J mice
T1 sequence (Q05769 18-604): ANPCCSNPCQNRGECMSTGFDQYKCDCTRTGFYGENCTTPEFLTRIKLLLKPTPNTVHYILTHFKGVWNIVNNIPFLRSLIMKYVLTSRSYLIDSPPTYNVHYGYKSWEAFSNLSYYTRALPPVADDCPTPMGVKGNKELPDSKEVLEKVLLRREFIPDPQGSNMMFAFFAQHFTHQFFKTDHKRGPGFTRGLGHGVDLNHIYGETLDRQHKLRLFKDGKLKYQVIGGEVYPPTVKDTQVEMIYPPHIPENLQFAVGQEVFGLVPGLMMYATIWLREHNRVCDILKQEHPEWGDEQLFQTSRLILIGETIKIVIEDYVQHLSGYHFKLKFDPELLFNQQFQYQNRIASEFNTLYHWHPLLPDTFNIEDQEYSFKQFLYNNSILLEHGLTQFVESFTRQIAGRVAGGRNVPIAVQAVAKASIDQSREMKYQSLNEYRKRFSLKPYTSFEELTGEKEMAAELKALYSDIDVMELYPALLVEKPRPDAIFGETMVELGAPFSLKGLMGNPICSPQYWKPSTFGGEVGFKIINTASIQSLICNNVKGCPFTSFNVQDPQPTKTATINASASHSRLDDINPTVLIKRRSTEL
Description: Cell culture: Adherent macrophages were harvested from the peritoneal cells of male mice (C57BL-6J, Level 2, from Experiment Animal Center, Academy of Military Medical Science) 3 d after the injection (ip) of brewer thioglycollate medium (5 mL/100 g body weight). […] After settlement for 2˜3 h, non-adherent cells were washed by D-Hanks' balanced salt solution. […] Cell viability was examined by trypan blue dye exclusion. All incubation procedures were performed with 5% CO2 in humidified air at 37° C.
COX-2 assay: Macrophages were incubated with test compound at different concentrations or solvent (Me2SO) for 1 h and were stimulated with LPS 1 mg/L for 9 h. The amount of PGE2 in supernatants was measured by RIA. The inhibitory ratio was calculated using the same formula as in COX-1 assay section. Cs, Ct, Cc refer to PGE2 concentration in supernatants of LPS, test compound, and control groups, respectively.
(§1) [formula] Cs, Ct, Cc refer to 6-keto-PGF1[…] concentration in supernatants of calcimycin, test compound, and control groups, respectively.
(§2) Statistical analysis: Data were expressed as the mean±SD of more than three independent experiments. Dose-inhibitory effect curves were fit through “uphill dose response curves, variable slope” using Prism, GraphPad version3.00: […]

Cyclooxygenase-1 = target: T2, Cyclooxygenase-1 (Mus musculus, UniProt P22437); test: COX-1 assay: calcimycin-stimulated 6-keto-PGF1 production in mouse peritoneal macrophages (RIA); type: cell-based, mice; conditions: calcimycin 1 μmol/L 1 h, 6-keto-PGF1 by RIA
T2 construct: endogenous in cells; host or cells: thioglycollate-elicited peritoneal macrophages of male C57BL-6J mice
T2 sequence (P22437 27-602): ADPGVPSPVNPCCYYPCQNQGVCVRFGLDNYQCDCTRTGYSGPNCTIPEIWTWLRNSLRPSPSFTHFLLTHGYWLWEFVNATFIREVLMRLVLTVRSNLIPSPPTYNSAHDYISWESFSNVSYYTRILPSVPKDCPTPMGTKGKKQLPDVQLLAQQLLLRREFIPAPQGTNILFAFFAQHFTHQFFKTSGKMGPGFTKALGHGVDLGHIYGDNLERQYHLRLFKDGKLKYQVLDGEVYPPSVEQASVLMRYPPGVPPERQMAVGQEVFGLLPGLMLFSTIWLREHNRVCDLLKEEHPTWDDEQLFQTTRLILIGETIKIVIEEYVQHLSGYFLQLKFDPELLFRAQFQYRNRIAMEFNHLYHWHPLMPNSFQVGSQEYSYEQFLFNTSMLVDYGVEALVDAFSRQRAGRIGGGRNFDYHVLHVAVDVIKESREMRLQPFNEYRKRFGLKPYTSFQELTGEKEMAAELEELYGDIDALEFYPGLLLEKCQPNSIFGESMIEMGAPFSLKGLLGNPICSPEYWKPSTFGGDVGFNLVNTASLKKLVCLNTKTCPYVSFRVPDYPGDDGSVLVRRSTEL
Description: Cell culture: Adherent macrophages were harvested from the peritoneal cells of male mice (C57BL-6J, Level 2, from Experiment Animal Center, Academy of Military Medical Science) 3 d after the injection (ip) of brewer thioglycollate medium (5 mL/100 g body weight). Shortly, peritoneal cells obtained from 3˜4 mice were mixed and seeded in 48 well cell culture cluster (Costar) at a cell density of 1×10^9 cell/L in RPMI-1640 supplemented with 5% (v/v) newborn calf serum, 100 ku/L penicillin and […] streptomycin. After settlement for 2˜3 h, non-adherent cells were washed by D-Hanks' balanced salt solution. Then macrophages were cultured in RPMI-1640 without serum. Almost all of adherent cells were macrophages as assessed by Giemsa staining. Cell viability was examined by trypan blue dye exclusion. All incubation procedures were performed with 5% CO2 in humidified air at 37° C.
COX-1: assay Macrophages were incubated with test compound at different concentrations or solvent (Me2SO) for 1 h and were stimulated with calcimycin 1 μmol·L^−1 for 1 h. The amount of 6-keto-PGF1[…] (a stable metabolite of PGI2) in supernatants was measured by RIA according to manufacturer's guide. The inhibitory ratio was calculated as
as §1, §2

[2] = 3 h after carrageenan, read-out: inhibitory percentage of edema, 3 hr
[3] = 4 h after carrageenan, read-out: inhibitory percentage of edema, 4 hr

Compound | inhibition at 10 mg/kg [1, 2] | inhibition at 10 mg/kg [1, 3] | IC50 (Cyclooxygenase-2) | IC50 (Cyclooxygenase-1) | COX-1/COX-2 (Cyclooxygenase-2)
CCCN1CC(c2ccc(C)cc2)=C(c2ccc(S(C)(=O)=O)cc2)C1=O [Example 104, N-Propyl-3-(4-methylsulfonylphenyl)-4-(4-methylphenyl)-2,5-dihydropyrrole-2-one] | 24.5% | 19.3% | – | – | –
Cc1ccc(C2=C(c3ccc(S(C)(=O)=O)cc3)C(=O)N(C)C2)cc1 [Example 105, N-Methyl-3-(4-methylsulfonylphenyl)-4-(4-methylphenyl)-2,5-dihydropyrrole-2-one] | 39.2% | 48.2% | 782 nM | > 10000 nM | –
CCCN1CC(c2ccc(F)cc2)=C(c2ccc(S(C)(=O)=O)cc2)C1=O [Example 106, N-Propyl-3-(4-methylsulfonylphenyl)-4-(4-fluorophenyl)-2,5-dihydropyrrole-2-one] | – | – | 611 nM | > 10000 nM | –
CS(=O)(=O)c1ccc(C2=C(c3ccc(Cl)cc3)CN(C3CC3)C2=O)cc1 [Example 107, N-Cyclopropyl-3-(4-methylsulfonylphenyl)-4-(4-chlorophenyl)-2,5-dihydropyrrole-2-one] | – | – | 421 nM | > 10000 nM | –
CS(=O)(=O)c1ccc(C2=C(c3cccc(Cl)c3)CN(C3CC3)C2=O)cc1 [Example 108, N-Cyclopropyl-3-(4-methylsulfonylphenyl)-4-(3-chlorophenyl)-2,5-dihydropyrrole-2-one] | 36.4% | 43.5% | 783 nM | > 10000 nM | –
CN1CC(c2cccc(Cl)c2)=C(c2ccc(S(C)(=O)=O)cc2)C1=O [Example 109, N-Methyl-3-(4-methylsulfonylphenyl)-4-(3-chlorophenyl)-2,5-dihydropyrrole-2-one] | – | – | 421 nM | > 10000 nM | –
CCCN1CC(c2cccc(Cl)c2)=C(c2ccc(S(C)(=O)=O)cc2)C1=O [Example 110, N-Propyl-3-(4-methylsulfonylphenyl)-4-(3-chlorophenyl)-2,5-dihydropyrrole-2-one] | 25.8% | 36.7% | 783 nM | – | –
CS(=O)(=O)c1ccc(C2=C(c3ccccc3)CN(C3CCCCC3)C2=O)cc1 [Example 112, N-Cyclohexyl-3-(4-methylsulfonylphenyl)-4-phenyl-2,5-dihydropyrrole-2-one] | – | – | 1790 nM | > 10000 nM | –
CS(=O)(=O)c1ccc(C2=C(c3cccc(F)c3)CN(C3CC3)C2=O)cc1 [Example 113, N-Cyclopropyl-3-(4-methylsulfonylphenyl)-4-(3-fluorophenyl)-2,5-dihydropyrrole-2-one] | – | – | 998 nM | > 10000 nM | –
CN1CC(c2ccc(S(C)(=O)=O)cc2)=C(c2ccccc2)C1=O [Example 114, N-Methyl-3-phenyl-4-(4-methylsulfonylphenyl)-2,5-dihydropyrrole-2-one] | – | – | 14.2 nM | 1120 nM | 78.9
CCCN1CC(c2ccc(S(C)(=O)=O)cc2)=C(c2ccccc2)C1=O [Example 115, N-Propyl-3-phenyl-4-(4-methylsulfonylphenyl)-2,5-dihydropyrrole-2-one] | 22.8% | 27.2% | 19.5 nM | 149 nM | 7.6
CS(=O)(=O)c1ccc(C2=C(c3ccccc3)C(=O)N(C3CC3)C2)cc1 [Example 116, N-Cyclopropyl-3-phenyl-4-(4-methylsulfonylphenyl)-2,5-dihydropyrrole-2-one] | – | – | 25.3 nM | 468 nM | 18.5
CCCN1CC(c2ccc(S(C)(=O)=O)cc2)=C(c2cccc(C)c2)C1=O [Example 121, N-Propyl-3-(3-methylphenyl)-4-(4-methylsulfonylphenyl)-2,5-dihydropyrrole-2-one] | – | – | 19.3 nM | 119 nM | –
Cc1cccc(C2=C(c3ccc(S(C)(=O)=O)cc3)CN(C3CC3)C2=O)c1 [Example 126, N-Cyclopropyl-3-(3-methylphenyl)-4-(4-methylsulfonylphenyl)-2,5-dihydropyrrole-2-one] | – | – | 15.5 nM | 221 nM | 14.3
CS(=O)(=O)c1ccc(C2=C(c3ccc(Cl)cc3)C(=O)N(C3CCCCC3)C2)cc1 [Example 127, N-Cyclohexyl-3-(4-chlorophenyl)-4-(4-methylsulfonylphenyl)-2,5-dihydropyrrole-2-one] | – | – | 20.7 nM | 143 nM | –
CS(=O)(=O)c1ccc(C2=C(c3ccc(F)cc3)C(=O)N(C3CC3)C2)cc1 [Example 128, N-Cyclopropyl-3-(4-fluorophenyl)-4-(4-methylsulfonylphenyl)-2,5-dihydropyrrole-2-one] | – | – | 66.4 nM | > 10000 nM | –
CCCN1CC(c2cccc(Br)c2)=C(c2ccc(S(N)(=O)=O)cc2)C1=O [Example 132, N-Propyl-3-(4-aminosulfonylphenyl)-4-(3-bromophenyl)-2,5-dihydropyrrole-2-one] | – | – | 998 nM | > 10000 nM | –
CCCN1CC(c2cccc(Cl)c2)=C(c2ccc(S(N)(=O)=O)cc2)C1=O [Example 133, N-Propyl-3-(4-aminosulfonylphenyl)-4-(3-chlorophenyl)-2,5-dihydropyrrole-2-one] | – | – | 482 nM | – | –
CCCN1CC(c2cccc(F)c2)=C(c2ccc(S(N)(=O)=O)cc2)C1=O [Example 135, N-Propyl-3-(4-aminosulfonylphenyl)-4-(3-fluorophenyl)-2,5-dihydropyrrole-2-one] | – | – | 564 nM | > 10000 nM | –
NS(=O)(=O)c1ccc(C2=C(c3cccc(Cl)c3)CN(C3CC3)C2=O)cc1 [Example 137, N-Cylcopropyl-3-(4-aminosulfonylphenyl)-4-(3-chlorophenyl)-2,5-dihydropyrrole-2-one] | – | – | 1690 nM | > 10000 nM | –
Cc1cccc(C2=C(c3ccc(S(N)(=O)=O)cc3)CN(C3CC3)C2=O)c1 [Example 141, N-Cylcopropyl-3-(3-methylphenyl)-4-(4-aminosulfonylphenyl)-2,5-dihydropyrrole-2-one] | – | – | 18.7 nM | > 10000 nM | –
